This note sets out measurements from patent publication US20260274853A1, “BIFUNCTIONAL COMPOUNDS CONTAINING PYRIMIDINE DERIVATIVES FOR DEGRADING CYCLIN-DEPENDENT KINASE 2 VIA UBIQUITIN PROTEASOME PATHWAY” (NIKANG THERAPEUTICS, INC., priority 2022, published 2026).

A value given as a limit tells only on which side of the number the result lay.

For assay [1], the target named is T1, CDK2 (Homo sapiens, UniProt P24941).
T1 construct: High-Throughput Measurement of Cellular Endogenous CDK2; endogenous in cells; host or cells: OVCAR3
Put plainly: Inhibition of CDK2: phospho-Rb (S807/811) HTRF measurement in OVCAR3 cells. To be noted: 24 h compound treatment, read-out: pRb (nM), IC50 in pRB(S807/811) assay. Type of assay: cell-based.

The target in assay [2] is T1, CDK2. In words: CDK2 HTRF assay: cellular endogenous CDK2 level in OVCAR3 cells. Type of assay: cell-based. The settings on record: 24 hours compound treatment; for DC50: read-out: DC50 (half maximal degradation concentration of CDK2). In a few lines: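 Endogenous CDK2 degradation in OVCAR3 cells after 24 h compound treatment at 0.3–10,000 nM. Lysates assayed with an HTRF total-CDK2 two-antibody kit, TR-FRET 665/620 ratio normalized to DMSO. DC50 from four-parameter logistic fit, reported as potency bins.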

Consider `CC(Cc1cccc(S(=O)(=O)N2CCC(Nc3ncc(C(F)(F)F)c(-c4cnn(CC(F)(F)F)c4)n3)CC2)c1)CN1CCC(c2ccc3c(N4CCC(=O)NC4=O)nn(C)c3c2)CC1` (stereo not drawn) [Example 78, 1-(1-methyl-6-(1-(2-methyl-3-(3-((4-((4-(1-(2,2,2-trifluoroethyl)-1H-pyrazol-4-yl)-5-(trifluoromethyl)-pyrimidin-2-yl)amino)piperidin-1-yl)sulfonyl)-phenyl)propyl)piperidin-4-yl)-1H-indazol-3-yl)dihydro-pyrimidine-2,4(1H,3H)-dione], for which the IC50 in assay [1] was less than 100 nM. Moreover, in assay [2], the DC50 was less than 100 nM.
Consider `Cn1nc(N2CCC(=O)NC2=O)c2ccc(C3CCN(CC(C)(C)c4cccc(S(=O)(=O)N5CCC(Nc6ncc(C(F)(F)F)c(-c7cnn(CC(F)(F)F)c7)n6)CC5)c4)CC3)cc21` [Example 90, 1-(1-methyl-6-(1-(2-methyl-2-(3-((4-((4-(1-(2,2,2-trifluoroethyl)-1H-pyrazol-4-yl)-5-(trifluoromethyl)-pyrimidin-2-yl)-amino)piperidin-1-yl)sulfonyl)phenyl)-propyl)piperidin-4-yl)-1H-indazol-3-yl)-dihydro-pyrimidine-2,4(1H,3H)-dione], for which the IC50 in assay [1] is less than 100 nM. The DC50 in assay [2] is less than 100 nM.
Turning to `Cn1cc(-c2nc(NC3CCN(S(=O)(=O)c4cccc(CN5CCC(c6ccc7c(N8CCC(=O)NC8=O)nn(C)c7c6)CC5)c4)CC3)ncc2C(F)(F)F)cn1` [Example 33, 1-(1-methyl-6-(1-(3-((4-((4-(1-methyl-1H-pyrazol-4-yl)-5-(trifluoromethyl)-pyrimidin-2-yl)amino)piperidin-1-yl)-sulfonyl)benzyl)piperidin-4-yl)-1H-indazol-3-yl)dihydropyrimidine-2,4(1H,3H)-dione], the IC50 in assay [1] is less than 100 nM. Moreover, in assay [2], the DC50 is less than 100 nM.
On to `Cn1nc(N2CCC(=O)NC2=O)c2ccc(C3CCN(Cc4cccc(S(=O)(=O)N5CC[C@H](Nc6ncc(C(F)(F)F)c(-c7cnn(CC(C)(C)O)c7)n6)[C@H](F)C5)c4)CC3)cc21` (racemic) [Example 70, Rac-1-(6-(1-(3-(((3R,4S)-3-fluoro-4-((4-(1-(2-hydroxy-2-methylpropyl)-1H-pyrazol-4-yl)-5-(trifluoromethyl)-pyrimidin-2-yl)amino)piperidin-1-yl)-sulfonyl)benzyl)piperidin-4-yl)-1-methyl-1H-indazol-3-yl)dihydro-pyrimidine-2,4(1H,3H)-dione], for which the IC50 in assay [1] is less than 100 nM. In addition, the DC50 in assay [2] is less than 100 nM.
For the molecule `O=C1CCC(N2C(=O)c3cc(F)c(N4CCN(Cc5cccc(S(=O)(=O)N6CCC(Nc7nccc(-c8cnn(CC(F)(F)F)c8)n7)CC6)c5)CC4)cc3C2=O)C(=O)N1` (stereo not drawn) [Example 17, 2-(2,6-dioxopiperidin-3-yl)-5-fluoro-6-(4-(3-((4-((4-(1-(2,2,2-trifluoroethyl)-1H-pyrazol-4-yl)pyrimidin-2-yl)amino)-piperidin-1-yl)sulfonyl)benzyl)-piperazin-1-yl)isoindoline-1,3-dione], the IC50 in assay [1] was in the range of 1000 to 10000 nM. Besides, in assay [2], the “DC50 (half maximal degradation concentration of CDK2)” value is listed as “no curve”.
Regarding `Cn1c(S(=O)(=O)N2CCC(Nc3ncc(C(F)(F)F)c(-c4cnn(CC(F)(F)F)c4)n3)CC2)cnc1CN1CCN(c2cc3c(cc2F)C(=O)N(C2CCC(=O)NC2=O)C3=O)CC1` (stereo not drawn) [Example 30, 2-(2,6-dioxopiperidin-3-yl)-5-fluoro-6-(4-((1-methyl-5-((4-((4-(1-(2,2,2-trifluoroethyl)-1H-pyrazol-4-yl)-5-(trifluoromethyl)pyrimidin-2-yl)amino)-piperidin-1-yl)sulfonyl)-1H-imidazol-2-yl)methyl)piperazin-1-yl)isoindoline-1,3-dione], in assay [1], the IC50 lay in the range of 100 to 500 nM. The DC50 in assay [2] is less than 100 nM.
In the same order, the values of `Cn1c(=O)n(C2CCC(=O)NC2=O)c2cccc(C3CCN(Cc4cccc(S(=O)(=O)N5CCC(Nc6ncc(C(F)(F)F)c(-c7cnn(CC(F)(F)F)c7)n6)CC5)c4)CC3)c21` (stereo not drawn) [Example 8, 3-(3-methyl-2-oxo-4-(1-(3-((4-((4-(1-(2,2,2-trifluoroethyl)-1H-pyrazol-4-yl)-5-(trifluoromethyl)pyrimidin-2-yl)amino)-piperidin-1-yl)sulfonyl)-benzyl)-piperidin-4-yl)-2,3-dihydro-1H-benzo[d]-imidazol-1-yl)piperidine-2,6-dione] are less than 100 nM and less than 100 nM.
For `O=C1CCN(c2ccc(N3CCN(Cc4cccc(S(=O)(=O)N5CCC(Nc6ncc(C(F)(F)F)c(-c7cnn(CC(F)(F)F)c7)n6)CC5)c4)CC3)nc2)C(=O)N1` [Example 41, 1-(6-(4-(3-((4-((4-(1-(2,2,2-trifluoro-ethyl)-1H-pyrazol-4-yl)-5-(trifluoro-methyl)pyrimidin-2-yl)amino)-piperidin-1-yl)sulfonyl)benzyl)-piperazin-1-yl)pyridin-3-yl)dihydro-pyrimidine-2,4(1H,3H)-dione], in that order: less than 100 nM and less than 100 nM.
For `Cc1ncsc1-c1ccc([C@H](C)NC(=O)[C@@H]2C[C@@H](O)CN2C(=O)[C@@H](NC(=O)C2(F)CC2)C(C)(C)SCC2CCN(Cc3cccc(S(=O)(=O)N4CCC(Nc5ncc(C(F)(F)F)c(-c6cnn(CC(F)(F)F)c6)n5)CC4)c3)CC2)cc1` [Example 77, (2S,4R)-1-((R)-2-(1-fluorocyclopropane-1-carboxamido)-3-methyl-3-(((1-(3-((4-((4-(1-(2,2,2-trifluoroethyl)-1H-pyrazol-4-yl)-5-(trifluoromethyl)pyrimidin-2-yl)-amino)piperidin-1-yl)sulfonyl)-benzyl)-piperidin-4-yl)methyl)thio)-butanoyl)-4-hydroxy-N-((S)-1-(4-(4-methylthiazol-5-yl)phenyl)ethyl)-pyrrolidine-2-carboxamide], in that order: less than 100 nM and less than 100 nM.
For `O=C1CCC(N2C(=O)c3cc(F)c(N4CCN(Cc5cccc(S(=O)(=O)N6CCC(Nc7ncc(C(F)(F)F)c(-c8cnn(C9CCOCC9)c8)n7)CC6)c5)CC4)cc3C2=O)C(=O)N1` (stereo not drawn) [Example 10, 2-(2,6-dioxopiperidin-3-yl)-5-fluoro-6-(4-(3-((4-((4-(1-(tetrahydro-2H-pyran-4-yl)-1H-pyrazol-4-yl)-5-(trifluoromethyl)-pyrimidin-2-yl)amino)-piperidin-1-yl)-sulfonyl)benzyl)-piperazin-1-yl)iso-indoline-1,3-dione], the IC50 in assay [1] is less than 100 nM. In assay [2], the DC50 was less than 100 nM.
`O=C1CCC(N2C(=O)c3cc(F)c(N4CC5(CN(Cc6cccc(S(=O)(=O)N7CCC(Nc8ncc(C(F)(F)F)c(-c9cnn(CC(F)(F)F)c9)n8)CC7)c6)C5)C4)cc3C2=O)C(=O)N1` (stereo not drawn) [Example 31, 2-(2,6-dioxopiperidin-3-yl)-5-fluoro-6-(6-(3-((4-((4-(1-(2,2,2-trifluoroethyl)-1H-pyrazol-4-yl)-5-(trifluoromethyl)-pyrimidin-2-yl)amino)piperidin-1-yl)-sulfonyl)benzyl)-2,6-diazaspiro[3.3]-heptan-2-yl)isoindoline-1,3-dione]: the IC50 in assay [1] was less than 100 nM. In assay [2], the DC50 was less than 100 nM.
Turning to `CC(Cc1cccc(S(=O)(=O)N2CCC(Nc3ncc(C(F)(F)F)c(-c4cnn(CC(F)(F)F)c4)n3)CC2)c1)N1CCC(c2ccc3c(N4CCC(=O)NC4=O)nn(C)c3c2)CC1` (stereo not drawn) [Example 93, 1-(1-methyl-6-(1-(1-(3-((4-((4-(1-(2,2,2-trifluoroethyl)-1H-pyrazol-4-yl)-5-(trifluoromethyl)pyrimidin-2-yl)amino)-piperidin-1-yl)sulfonyl)-phenyl)propan-2-yl)piperidin-4-yl)-1H-indazol-3-yl)dihydropyrimidine-2,4(1H,3H)-dione], the IC50 in assay [1] was less than 100 nM. The DC50 in assay [2] was less than 100 nM.
On to `Cn1nc(N2CCC(=O)NC2=O)c2ccc(N3CC4CC(C3)N4Cc3cccc(S(=O)(=O)N4CC[C@H](Nc5ncc(C(F)(F)F)c(-c6cnn(CC(F)(F)F)c6)n5)[C@H](F)C4)c3)cc21` [Example 82, 1-(6-(6-(3-(((3R,4S)-3-fluoro-4-((4-(1-(2,2,2-trifluoroethyl)-1H-pyrazol-4-yl)-5-(trifluoromethyl)pyrimidin-2-yl)amino)-piperidin-1-yl)sulfonyl)-benzyl)-3,6-diazabicyclo[3.1.1]heptan-3-yl)-1-methyl-1H-indazol-3-yl)dihydro-pyrimidine-2,4(1H,3H)-dione], for which, in assay [1], the IC50 is less than 100 nM. Further, in assay [2], the DC50 is less than 100 nM.
Consider `O=C1CCC(N2C(=O)c3cc(F)c(N4CCN(Cc5cccc(S(=O)(=O)N6CCC(Nc7ncc(C(F)(F)F)c(-c8cnn(CC(F)(F)F)c8)n7)CC6)c5)CC4)cc3C2=O)C(=O)N1` (stereo not drawn) [Example 1, 2-(2,6-dioxopiperidin-3-yl)-5-fluoro-6-(4-(3-((4-((4-(1-(2,2,2-trifluoroethyl)-1H-pyrazol-4-yl)-5-(trifluoromethyl)pyrimidin-2-yl)amino)piperidin-1-yl)sulfonyl)benzyl)piperazin-1-yl)isoindoline-1,3-dione], for which the IC50 in assay [1] was 100 to 500 nM. Moreover, in assay [2], the DC50 was 100 to 500 nM.
Turning to `Cn1nc(N2CCC(=O)NC2=O)c2ccc(C3CCN(Cc4cccc(S(=O)(=O)[C@H]5CC[C@H](Nc6ncc(C(F)(F)F)c(-c7cnn(CC(F)(F)F)c7)n6)CC5)c4)CC3)cc21` [Example 74, 1-(1-methyl-6-(1-(3-(((1r,4r)-4-((4-(1-(2,2,2-trifluoroethyl)-1H-pyrazol-4-yl)-5-(trifluoromethyl)pyrimidin-2-yl)-amino)cyclohexyl)sulfonyl)benzyl)-piperidin-4-yl)-1H-indazol-3-yl)dihydro-pyrimidine-2,4(1H,3H)-dione], in assay [1], the IC50 was less than 100 nM. Moreover, in assay [2], the DC50 was less than 100 nM.
